# Data from US20250195687A1, “PEPTIDE-BASED PHOSPHATE BINDER FOR THE TREATMENT OF HYPERPHOSPHATEMIA” (B. G. NEGEV TECHNOLOGIES AND APPLICATIONS LTD., priority 2022, published 2025).
# Key:
# [1] = Colorimetric (molybdenum blue) phosphate binding in intestinal and gastric fluid simulants; conditions: pH=6 or pH=7.5 (clinical PhB at pH=7.5)
# Text: The binding efficiency of the SiO2-CysHex particles in intestinal and digestive fluid simulants was examined by a colorimetric method. The procedure was based on the determination of the amount of uncaptured phosphate from a solution of known initial phosphate concentration. A spectrophotometric assay referred to as the molybdenum blue reaction was employed. It emits a blue color whose intensity is linearly proportional to the amount of phosphate present in the solution allowing by measurement of color intensity and proper calibration, to determine phosphate concentration. The reaction involves the following two steps: • 1. PO4^3−+12(NH4)2MoO4+24H^+→(NH4)3PO4·12MoO3+21NH4^++12H2O • 2. […]
# For this experiment, a phosphate assay kit (Sigma-Aldrich) with a stated concentration range between 0.005 mM and 0.025 mM phosphate was used. The kit included a 10 mM phosphate standard solution and a coloring reagent that reacts with phosphates to form a complex that could be measured and quantified by UV-VIS absorbance spectroscopy. The phosphate standard was used to prepare a calibration curve between the absorbance intensity at a wavelength of 650 nm and phosphate concentrations. […]
# A volume of 20 μL of the supernatant filtrate (sec 4.3.3.1.2), 180 μL DI water, and 30 μL coloring reagent were added to a 96 well plate. Two duplicates of each sample were measured, and the resulting values were averaged. […]
# [2] = 31P NMR phosphate peak widening by free peptide in intestinal fluid simulants; assay type: binding; conditions: for phosphate peak widening: peptide 13.1 mM, phosphate 2.6 mM
# Text: ^31P NMR-NMR relaxation is the process by which excited magnetic state nuclei return to their equilibrium distribution. At the start of an NMR experiment, the nuclei are “lined up” with the external magnetic field. When an electromagnetic RF field is activated on these nuclei, they resonate at a characteristic resonance frequency, and the NMR signal is created. At that instant, all the nuclei are in phase and coherent. However, due to small differences in their resonance frequencies, they will begin to dephase. The time it takes for the nuclei to dephase is measured by T2 the so-called spin-spin relaxation time. T2 is inversely proportional to Δω, the width of the resonance peak in the spectra measured at half the maximum height: Δω=2/T2. The more slowly a macromolecule tumbles, the shorter its T2; thus, big molecules have broader resonance peaks than small molecules. An increase in molecular size due to interaction or reduced mobility affects the T2 relaxation time and is manifested by widening the NMR signal.
# In this study, phosphate-binding experiments of free (unattached to silica) peptides in intestinal fluid simulants as function of the surrounding pH were examined. Binding was determined by the widening of the relevant phosphate peaks in phosphorus NMR (^31P NMR) spectra. These experiments aimed to investigate the effect of the background solution containing many components on the ability of the peptide to bind phosphate. ^31P NMR experiments were preferred over standard ^1H NMR since in the former only one (phosphate) or at most two (phosphate and phospholipid) peaks are detected as opposed to the multitude of frequently overlapping, peaks in the spectra of the latter. […]
# Samples were prepared by mixing the required amounts of phosphate stock solution, and FAS or FES solutions into one 1.5 mL Eppendorf tube, and phosphate stock, peptide stock, and FAS or FES solution into a second similar tube. in. The pH was measured and adjusted to the desired value as described above. […] The contents of each Eppendorf tube were analyzed separately by NMR as described below. […]
# [3] = 31P NMR phospholipid peak widening by free peptide in FES solution; assay type: binding
# Text: ^31P NMR-NMR relaxation is the process by which excited magnetic state nuclei return to their equilibrium distribution. At the start of an NMR experiment, the nuclei are “lined up” with the external magnetic field. When an electromagnetic RF field is activated on these nuclei, they resonate at a characteristic resonance frequency, and the NMR signal is created. At that instant, all the nuclei are in phase and coherent. However, due to small differences in their resonance frequencies, they will begin to dephase. The time it takes for the nuclei to dephase is measured by T2 the so-called spin-spin relaxation time. T2 is inversely proportional to Δω, the width of the resonance peak in the spectra measured at half the maximum height: Δω=2/T2. The more slowly a macromolecule tumbles, the shorter its T2; thus, big molecules have broader resonance peaks than small molecules. An increase in molecular size due to interaction or reduced mobility affects the T2 relaxation time and is manifested by widening the NMR signal. […]
# The first sample used for FES solution reference was composed of 1 mL FES solution which was placed in a 1.5 mL Eppendorf tube. […] The pH was measured using a pH electrode (Mettler Toledo, SevenComplex) and adjusted to the desired value by dropwise addition of HCl or NaOH solutions. […] The contents of each Eppendorf tube were analyzed separately by NMR as described below.
# Solution ^31P NMR data were collected on a Bruker Avance III 400 MHz spectrometer (Bruker BioSpin, Germany). […] A capillary tube insert filled with phosphoric acid solution in D2O (10% v/v phosphoric acid in D2O/H2O) was used for calibration and inserted into the NMR tube that contained the measured sample. […] NMR data was analyzed using TopSpin software (Bruker).
# The capability of a free unbound peptide to capture phosphate in the intestinal simulant solutions was examined using P NMR. […] As discussed above, binding is qualitatively evaluated by the decrease in T2 relaxation, or the corresponding widening of the peak associated with the phosphorus nuclei in the molecule and calculated as follows: […]
pH of lowest phospholipid binding ([3]; absence of phosphate),"phospholipid binding ([3]; absence of phosphate, 6.5 peptide molecules per phospholipid molecule, entire relevant pH range)",Compound,Phosphate binding effectiveness ([1]; FAS),Phosphate binding effectiveness ([1]; FES),phosphate peak widening ([2]; FAS solution),phosphate peak widening ([2]; FES solution),pH range in which the peptide captures phosphate ([2]; only in FES),"phospholipid peak width (ratio) ([3]; pH=6, peptide 13.1 mM and phosphate 2.6 mM present, phospholipid 2 mM, average of three measurements)"
–,–,"O=C([O-])[O-].O=C([O-])[O-].O=C([O-])[O-].[La+3].[La+3] [Lanthanum, Lanthanum carbonate]",4.1 mg phosphate/gr PhB,0.9 mg phosphate/gr PhB,–,–,–,–
~6,binds the phospholipid quite effectively,Cys-SGAGKT [CysHex],–,–,no widening,pH dependent and is maximal at pH values commensurate with values in the GI tract,7-8,0.93±0.15
